Reference: patent US8076323B2, “Anti-inflammatory agents” (Cambridge Enterprise Limited, priority 2005, dated 2011)
Bridges are numbered along the chain shown (N, C = ends). Where no end group is shown, it is not given here. [ ]: non-standard residue; d: D form.

What was measured:
[1] = cited from earlier work
[2] = test system: chemokine-induced migration; settings: cited from earlier work
[3] = oral route or injection; comparable to dexamethasone; cited from earlier work
[4] = stability in human serum; assay type: in vitro ADME; settings: 37° C.
[5] = test system: chemokine-induced migration; assay: chemokine-induced leukocyte migration in vitro (prior work); assay type: cell-based; settings: compared with (S)-3-(undec-10-enoyl)-aminoglutarimide

For “c(DCys-DGin-DIle-DTrp-DLys-DGln-DLys-DPro-DAsp-DLeu-DCys)-NH2 ([dC][dQ][dI][dW][dK][dQ][dK][dP][dD][dL][dC]-NH2; disulfide 1-11 (inferred)) [NR58-3.14.3]”, the “half-life period of clearance from blood plasma” value ([1]; after intravenous injection) is given as “less than 30 minutes” and the oral bioavailability ([1]; in vivo, po) is given as “not orally bioavailable”.
For `O=C1NCCCC[C@@H]1NC(=O)C12CC3CC(CC(C3)C1)C2` [(S)-3-(1′-adamantanecarbonylamino)caprolactam], the “inhibition of leukocyte migration or recruitment in vitro (in words)” value [2] is listed as “potent inhibitor” and the “anti-inflammatory activity in vivo (in words)” value [3] is listed as “powerful anti-inflammatory activity”.
In the case of `C=CCCCCCCCCC(=O)[C@@H]1CCCNC1=O` [(S)-3-(undec-10-enoyl)-tetrahydropyridin-2-one], the “time completely stable in human serum” value [4] is reported as “at least 7 days” and the “potency compared with the parental molecule” value [5] is reported as “considerably reduced potency”.
